Results: PubChem BioAssay AID330 (DTP/NCI, 2004)
Values joined by “and” are separate entries in the source; they are usually repeats but may differ in a detail not shown here. Equal values may be shown once. Inconclusive results and toxic doses are left out. Peptide text beside a SMILES is read from it. * marks the point of attachment. Trt = c1ccc(C(c2ccccc2)(c2ccccc2)*)cc1; Cbz = O=C(OCc1ccccc1)*; OtBu = CC(C)(C)O*

Test system: P388 leukemia ip, CD2F1 mice, survival T/C
Experiment: NCI In Vivo Anticancer Drug Screen. Data for tumor model P388 Leukemia (intraperitoneal) in CD2F1 (CDF1) mice
Conditions: endpoint: median survival time, higher = longer survival
In short: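 Mice carrying the transplanted tumor received test compound or vehicle. Survival was recorded in each group, and the value is the treated-group measurement divided by that of the vehicle-treated control group.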

[1] = dose: 50.0 mg/kg/injection, schedule: Q01DX009 (ip), vehicle: saline with Tween-80
[2] = dose: 100.0 mg/kg/injection, schedule: Q01DX009 (ip), vehicle: saline with Tween-80
[3] = dose: 200.0 mg/kg/injection, schedule: Q01DX009 (ip), vehicle: saline with Tween-80
[4] = dose: 50.0 mg/kg/injection, schedule: Q01DX009 (ip), vehicle: Klucel (hydroxypropylcellulose) (HPC)
[5] = dose: 100.0 mg/kg/injection, schedule: Q01DX009 (ip), vehicle: Klucel (hydroxypropylcellulose) (HPC)
[6] = dose: 200.0 mg/kg/injection, schedule: Q01DX009 (ip), vehicle: Klucel (hydroxypropylcellulose) (HPC)
[7] = dose: 400.0 mg/kg/injection, schedule: Q01DX009 (ip), vehicle: saline with Tween-80
[8] = dose: 100.0 mg/kg/injection, schedule: Q04DX002 (ip), vehicle: saline with Tween-80
[9] = dose: 200.0 mg/kg/injection, schedule: Q04DX002 (ip), vehicle: saline with Tween-80
[10] = dose: 50.0 mg/kg/injection, schedule: Q01DX005 (ip), vehicle: saline with Tween-80
[11] = dose: 100.0 mg/kg/injection, schedule: Q01DX005 (ip), vehicle: saline with Tween-80
[12] = dose: 60.0 mg/kg/injection, schedule: Q01DX005 (ip), vehicle: Klucel (hydroxypropylcellulose) (HPC)
[13] = dose: 120.0 mg/kg/injection, schedule: Q01DX005 (ip), vehicle: Klucel (hydroxypropylcellulose) (HPC)
[14] = dose: 12.5 mg/kg/injection, schedule: Q01DX009 (ip), vehicle: Klucel (hydroxypropylcellulose) (HPC)
[15] = dose: 25.0 mg/kg/injection, schedule: Q01DX009 (ip), vehicle: Klucel (hydroxypropylcellulose) (HPC)
[16] = dose: 400.0 mg/kg/injection, schedule: Q04DX002 (ip), vehicle: saline with Tween-80

## N#CC1OC(COC(=O)c2ccccc2)C(OC(=O)c2ccccc2)C1OC(=O)c1ccccc1 (configuration not stated)
dose: 12.5 mg/kg/injection, schedule: Q01DX009 (ip), vehicle: distilled water + Tween-80
  T/C: 90 % of control
dose: 25.0 mg/kg/injection, schedule: Q01DX009 (ip), vehicle: distilled water + Tween-80
  T/C: 89 % of control
dose: 50.0 mg/kg/injection, schedule: Q01DX009 (ip), vehicle: distilled water + Tween-80
  T/C: 88 % of control
[1]
  T/C: 99 % of control
dose: 100.0 mg/kg/injection, schedule: Q01DX009 (ip), vehicle: distilled water + Tween-80
  T/C: 98 % of control
[2]
  T/C: 94 % of control
dose: 200.0 mg/kg/injection, schedule: Q01DX009 (ip), vehicle: distilled water + Tween-80
  T/C: 101 % of control
[3]
  T/C: 94 % of control

## OC(C(=S)N1CCCC1)(c1ccccc1)c1ccccc1
[4]
  T/C: 103 % of control
[5]
  T/C: 103 % of control
[6]
  T/C: 100 % of control

## O=C1CCCCC1C1=CCCCC1 (configuration not stated)
[4]
  T/C: 109 % of control
[5]
  T/C: 95 % of control
[6]
  T/C: 100 % of control
dose: 400.0 mg/kg/injection, schedule: Q01DX009 (ip), vehicle: Klucel (hydroxypropylcellulose) (HPC)
  T/C: 92 % of control

## O=c1[nH]c2ccccc2c(=O)n1-c1ccccc1
[2]
  T/C: 101 % of control and 109 % of control
[3]
  T/C: 96 % of control
[7]
  T/C: 113 % of control and 95 % of control

## CC(=O)n1c2ccccc2c2c(C)c3cnccc3c(C)c21
dose: 12.5 mg/kg/injection, schedule: Q04DX002 (ip), vehicle: saline with Tween-80
  T/C: 114 % of control
dose: 25.0 mg/kg/injection, schedule: Q04DX002 (ip), vehicle: saline with Tween-80
  T/C: 124 % of control
dose: 50.0 mg/kg/injection, schedule: Q04DX002 (ip), vehicle: saline with Tween-80
  T/C: 152 % of control
[8]
  T/C: 171 % of control
[9]
  T/C: 196 % of control

## CCOC(=O)CCS(=O)c1ccccc1 (configuration not stated)
[4]
  T/C: 114 % of control
[5]
  T/C: 109 % of control
[6]
  T/C: 104 % of control

## O=C1CN(c2cccc(Cl)c2)C(=O)CN1/N=C/c1ccc[nH]1
[10]
  T/C: 92 % of control
[11]
  T/C: 102 % of control
dose: 200.0 mg/kg/injection, schedule: Q01DX005 (ip), vehicle: saline with Tween-80
  T/C: 90 % of control

## Cc1c(Cl)cc[n+]([O-])c1C
dose: 25.0 mg/kg/injection, schedule: Q01DX009 (ip), vehicle: other
  T/C: 100 % of control
dose: 50.0 mg/kg/injection, schedule: Q01DX009 (ip), vehicle: other
  T/C: 108 % of control
dose: 100.0 mg/kg/injection, schedule: Q01DX009 (ip), vehicle: other
  T/C: 108 % of control
dose: 200.0 mg/kg/injection, schedule: Q01DX009 (ip), vehicle: other
  T/C: 107 % of control
dose: 400.0 mg/kg/injection, schedule: Q01DX009 (ip), vehicle: other
  T/C: 110 % of control

## CC(=O)OC1CC(O)C23COC(O)C1(C)C2CC(O)C1(C)C3C(=O)C(O)C2(C)C(c3ccoc3)CC3OC321 (configuration not stated)
dose: 0.13 mg/kg/injection, schedule: Q01DX009 (ip), vehicle: saline + alcohol
  T/C: 91 % of control
dose: 0.25 mg/kg/injection, schedule: Q01DX009 (ip), vehicle: saline + alcohol
  T/C: 93 % of control
dose: 0.5 mg/kg/injection, schedule: Q01DX009 (ip), vehicle: saline + alcohol
  T/C: 90 % of control
dose: 1.0 mg/kg/injection, schedule: Q01DX009 (ip), vehicle: saline + alcohol
  T/C: 94 % of control
dose: 1.25 mg/kg/injection, schedule: Q01DX009 (ip), vehicle: Klucel (hydroxypropylcellulose) (HPC)
  T/C: 104 % of control
dose: 2.5 mg/kg/injection, schedule: Q01DX009 (ip), vehicle: Klucel (hydroxypropylcellulose) (HPC)
  T/C: 95 % of control

## CC(C)CC(NC(=O)C(CSC(c1ccccc1)(c1ccccc1)c1ccccc1)NC(=O)OCc1ccccc1)C(=O)NC(C(=O)OC(C)(C)C)C(C)C (stereo not drawn) (Cbz-Cys(Trt)-Leu-Val-OtBu; configuration not given here)
[12]
  T/C: 96 % of control
[13]
  T/C: 100 % of control
dose: 240.0 mg/kg/injection, schedule: Q01DX005 (ip), vehicle: Klucel (hydroxypropylcellulose) (HPC)
  T/C: 107 % of control

## O=C(Nc1ccccc1)Oc1ccc(/C=N/Sc2cccc([N+](=O)[O-])c2)cc1
[1]
  T/C: 87 % of control
[2]
  T/C: 101 % of control
[3]
  T/C: 106 % of control

## C=C1C[C@@H](O)C[C@@]2(C)C[C@@H]3OC(=O)C(=C)[C@@H]3C[C@H]12
[14]
  T/C: 99 % of control
[15]
  T/C: 111 % of control
[4]
  T/C: 114 % of control
[5]
  T/C: 114 % of control

## COc1ccc(-n2c(-c3ccc(-n4c(C)nc5ccc(I)cc5c4=O)cc3)n[nH]c2=S)cc1
dose: 100.0 mg/kg/injection, schedule: Q04DX002 (ip), vehicle: Klucel (hydroxypropylcellulose) (HPC)
  T/C: 103 % of control
dose: 200.0 mg/kg/injection, schedule: Q04DX002 (ip), vehicle: Klucel (hydroxypropylcellulose) (HPC)
  T/C: 98 % of control
dose: 400.0 mg/kg/injection, schedule: Q04DX002 (ip), vehicle: Klucel (hydroxypropylcellulose) (HPC)
  T/C: 98 % of control

## c1ccc(-c2cc3ccc4cccnc4c3o2)cc1
[8]
  T/C: 91 % of control
[9]
  T/C: 87 % of control
[16]
  T/C: 103 % of control

## O=c1c2[nH]c3ccccc3sc=2c(=O)c2ccccc12
[1]
  T/C: 90 % of control
[2]
  T/C: 91 % of control
[3]
  T/C: 106 % of control

## COC(=O)C(=O)c1ccccc1
[1]
  T/C: 107 % of control
[2]
  T/C: 101 % of control
[3]
  T/C: 99 % of control
[7]
  T/C: 99 % of control

## O=c1c2cnc(-c3ccccc3)nc2oc2ccc3ccccc3c12
dose: 12.5 mg/kg/injection, schedule: Q01DX009 (ip), vehicle: saline with Tween-80
  T/C: 97 % of control
dose: 25.0 mg/kg/injection, schedule: Q01DX009 (ip), vehicle: saline with Tween-80
  T/C: 96 % of control
[1]
  T/C: 87 % of control and 92 % of control
[2]
  T/C: 90 % of control

## CC(=O)c1cc2cc3c4c(c2oc1=O)CCCN4CCC3
[12]
  T/C: 104 % of control
[13]
  T/C: 112 % of control

## O=C1Cc2ccccc2N1C(=O)c1ccc(F)cc1
dose: 100.0 mg/kg/injection, schedule: Q01DX001 (ip), vehicle: Klucel (hydroxypropylcellulose) (HPC)
  T/C: 102 % of control
dose: 200.0 mg/kg/injection, schedule: Q01DX001 (ip), vehicle: Klucel (hydroxypropylcellulose) (HPC)
  T/C: 92 % of control
dose: 400.0 mg/kg/injection, schedule: Q01DX001 (ip), vehicle: Klucel (hydroxypropylcellulose) (HPC)
  T/C: 95 % of control

## COc1ccc(-n2c3c(c4c(N)ncnc42)CCCC3)cc1
dose: 60.0 mg/kg/injection, schedule: Q01DX005 (ip), vehicle: saline with Tween-80
  T/C: 105 % of control
dose: 120.0 mg/kg/injection, schedule: Q01DX005 (ip), vehicle: saline with Tween-80
  T/C: 93 % of control

## O=C(Cc1ccccc1)c1ccc(C(F)(F)F)cc1
[14]
  T/C: 104 % of control
[15]
  T/C: 95 % of control
[4]
  T/C: 104 % of control and 87 % of control

## CC(NC(=O)C(Cc1ccc(OC(=O)OCc2ccccc2)cc1)NC(=O)OCc1ccccc1)C(=O)OCc1ccccc1 (configuration not stated)
[10]
  T/C: 96 % of control
[11]
  T/C: 92 % of control

## O=c1ccc(OS(=O)(=O)c2ccccc2)n[nH]1
[12]
  T/C: 92 % of control
[13]
  T/C: 90 % of control

## C#CCN(C)CCO
dose: 100.0 mg/kg/injection, schedule: Q01DX009 (ip), vehicle: saline
  T/C: 111 % of control
dose: 200.0 mg/kg/injection, schedule: Q01DX009 (ip), vehicle: saline
  T/C: 111 % of control
dose: 400.0 mg/kg/injection, schedule: Q01DX009 (ip), vehicle: saline
  T/C: 116 % of control

## O=[N+]([O-])c1ccc(C2OCC3CSCN32)cc1 (configuration not stated)
[8]
  T/C: 107 % of control
[9]
  T/C: 97 % of control
[16]
  T/C: 97 % of control
